Data on 14 compounds can be found in patent US6495693B2, “N-(aryl/heteroaryl) amino acid derivatives, pharmaceutical compositions comprising same, and methods for inhibiting β-amyloid peptide release and/or its synthesis by use of such compounds” (Athena Neurosciences, Inc., priority 1996, dated 2002).

Broadly, the melting point is the temperature of the solid-liquid transition.

Take `CC(Nc1ccc(Cl)c(Cl)c1)C(=O)NC(=O)[C@@H](N)C(C)C` (mixture of isomers) [Example 6, N-[N-(3,4dichlorophenyl)-D,L-alanyl]-L-valine amide]: the melting point lay within 156 to 158 °C.
With `CC(Nc1ccc(Cl)c(Cl)c1)C(=O)N[C@H](C(=O)N(C)C)C(C)C` (mixture of isomers) [Example 8, N-[N-(3,4-dichlorophenyl)-D,L-alanyl]-L-valine N,N-dimethyl amide], the melting point fell in the range of 145 to 160 °C.
The same measure for `COC(=O)[C@H](Cc1c[nH]c2ccccc12)NC(=O)C(C)Nc1ccc(Cl)c(Cl)c1` (mixture of isomers) [Example 16, N-[N-(3,4dichlorophenyl)-D,L-alanyl]-L-tryptophan methyl ester]: 54 to 66 °C; for `COC(=O)[C@H](CC(=O)O)NC(=O)C(C)Nc1ccc(Cl)c(Cl)c1` (mixture of isomers) [Example 18, N-[N-(3,4dichlorophenyl)-D,L-alanyl]-L-aspartic acid methyl ester]: 53.5 to 56 °C; for `CC(Nc1ccc(Cl)c(Cl)c1)C(=O)NC(=O)[C@@H](N)Cc1ccccc1` (mixture of isomers) [Example 36, N-[N-(3,4dichlorophenyl)-D,L-alanyl]-L-phenylalanine amide]: 177 to 179 °C.
To `COC(=O)[C@H](Cc1c[nH]cn1)NC(=O)C(C)Nc1ccc(Cl)c(Cl)c1` (mixture of isomers) [Example 46, N-[N-(3,4-dichlorophenyl)-D,L-alanyl]-L-histidine methyl ester] belongs 55 to 60 °C.
To `COC(=O)[C@H](C)NC(=O)C(C)Nc1cc(F)cc(F)c1` (mixture of isomers) [Example 49, N-[N-(3,5-difluorophenyl)-D,L-alanyl]-L-alanine methyl ester] belongs 93 to 95 °C; to `CCCC[C@H](NC(=O)C(C)Nc1cc(F)cc(F)c1)C(=O)OC` (mixture of isomers) [Example 50, N-[N-(3,5-difluorophenyl)-D,L-alanyl]-(S)-2-aminohexanoic acid methyl ester], 93 to 95 °C.
In the case of `COC(=O)[C@H](CC(C)C)NC(=O)[C@H](C)Nc1ccc(Cl)c(Cl)c1` [Example 11, N-[N-(3,4dichlorophenyl)-L-alanyl]-L-leucine methyl ester], the melting point lay in the range of 120 to 132 °C.
To `COC(=O)[C@H](Cc1ccccc1)NC(=O)[C@H](C)Nc1ccc(Cl)c(Cl)c1` [Example 12, N-[N-(3,4-dichlorophenyl)-L-alanyl]-L-phenylalanine methyl ester] belongs 122 to 124.5 °C; to `CCCC[C@H](NC(=O)[C@H](C)Nc1ccc(Cl)c(Cl)c1)C(=O)OC` [Example 15, N-[N-(3,4dichlorophenyl)-L-alanyl]-(S)-2-aminohexanoic acid methyl ester], 163 to 165 °C; to `CCCC[C@H](N)C(=O)NC(=O)[C@H](C)Nc1ccc(Cl)c(Cl)c1` [Example 40, N-[N-(3,4-dichlorophenyl)-L-alanyl]-(S)-2-aminohexanamide], 156 to 161 °C.
In turn, `CCCC[C@H](NC(=O)[C@H](C)Nc1nc2ccccc2s1)C(=O)OC` [Example 48, N-[N-(benzothiazol-2-yl)-L-alanyl]-(S)-2-aminohexanoic acid methyl ester] had a melting point of 99 to 120 °C.
Compound `CCCC[C@H](N)C(=O)NC(=O)[C@H](C)Nc1ccc(Cl)c(Cl)c1` [Example 51, N-[N-(3,4dichlorophenyl)-L-alanyl]-(S)-2-aminohexanamide] showed a melting point of 184 to 186 °C.
